Test results taken from publication PMC2425470 (Nucleic Acids Research, 2008).

How the values were obtained:
[1] = target: T1, CF Im25 (25 kDa subunit of human cleavage factor Im; CPSF5; NUDT21) (Homo sapiens, UniProt O43809); assay: steady-state tryptophan fluorescence titration; format: binding
[2] = target: T1, CF Im25 (25 kDa subunit of human cleavage factor Im; CPSF5; NUDT21); assay: […] Å crystal structure; format: binding

T1 sequence (O43809 whole entry): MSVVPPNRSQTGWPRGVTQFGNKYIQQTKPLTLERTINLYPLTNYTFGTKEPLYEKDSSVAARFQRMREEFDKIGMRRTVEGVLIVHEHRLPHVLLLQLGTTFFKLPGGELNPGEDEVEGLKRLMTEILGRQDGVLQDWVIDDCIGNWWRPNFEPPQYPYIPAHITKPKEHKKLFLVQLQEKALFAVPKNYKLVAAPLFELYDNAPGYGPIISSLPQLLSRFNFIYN

Row | SMILES | Kd [1] | Kd [2]
1 | Nc1ncnc2c1ncn2[C@@H]1O[C@H](COP(=O)(O)OP(=O)(O)OP(=O)(O)O)[C@@H](O)[C@H]1O [ATP] | 1530 ± 180 µM | 
2 | Nc1ncnc2c1ncn2[C@@H]1O[C@H](COP(=O)(O)OP(=O)(O)OP(=O)(O)OP(=O)(O)OC[C@H]2O[C@@H](n3cnc4c(N)ncnc43)[C@H](O)[C@@H]2O)[C@@H](O)[C@H]1O [Ap4A] |  | 2.44 ± 0.49 µM
